Assays:
[1] = tested on: HCT116 MTAP-deleted cells; test: Cell viability assay (CellTiter-Glo, 7 days), HCT116 MTAP-deleted; settings: Homo sapiens, HCT-116, 168 h
[2] = tested on: SDMA signal (PRMT5 inhibition) in HCT116 MTAP-deleted cells; test: Symmetric di-methyl arginine image-based high content screen assay (SDMA assay), HCT116 MTAP-deleted; format: cell-based; settings: SDMA assay; for EC50: Homo sapiens, HCT-116, 72 h, 3 days of treatment, cell line not given, taken as HCT116 MTAP-deleted, read-out: EC50 (SDMA assay); for EC50 selectivity (SDMA assay): taken as HCT116 WT versus MTAP-deleted
How it was run: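 Read-out: per-cell mean SDMA immunofluorescence (Alexa Fluor 488 secondary), cells segmented by DAPI on a high-content imager. Compound exposure in HCT116 MTAP-deleted cells lasted until fixation on Day 3; overnight 4° C primary anti-SDMA antibody staining.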

EC50 [2] [nM] | EC50 selectivity (SDMA assay) [2] | SMILES | CC50 [1] [nM]
< 1 | 267 | CCN(C(=O)C1CC1)N(Cc1ccc(C(F)(F)F)cn1)C(=O)c1ccc2nc(N)c3cnn(C)c3c2c1 [Example 288, 4-amino-N′-(cyclopropanecarbonyl)-N′-ethyl-1-methyl-N-((5-(trifluoromethyl)pyridin-2-yl)methyl)-1H-pyrazolo[4,3-c]quinoline-8-carbohydrazide] | < 100
1 to 5 | 155 | CC(=O)N(C)N(Cc1cccc2c1nnn2C)C(=O)c1ccc2nc(N)c3cnn(C)c3c2c1 [Example 289, N′-acetyl-4-amino-N′,1-dimethyl-N-((1-methyl-1H-benzo[d][1,2,3]triazol-4-yl)methyl)-1H-pyrazolo[4,3-c]quinoline-8-carbohydrazide] | 100 to 1000
1 to 5 | 80 | Cn1ncc2c(N)nc3ccc(C(=O)N(Cc4ccc(C(F)(F)F)cn4)N4CCOCC4(C)C)cc3c21 [Example 292, 4-amino-N-(3,3-dimethylmorpholino)-1-methyl-N-((5-(trifluoromethyl)pyridin-2-yl)methyl)-1H-pyrazolo[4,3-c]quinoline-8-carboxamide] | 100 to 1000
< 1 | 9 | C[C@@H]1CN(N(Cc2ccc(C(F)(F)F)cn2)C(=O)c2cc3c(cc2F)nc(N)c2cnn(C)c23)C[C@H](C)O1 [Example 293, 4-amino-N-((2S,6R)-2,6-dimethylmorpholino)-7-fluoro-1-methyl-N-((5-(trifluoromethyl)pyridin-2-yl)methyl)-1H-pyrazolo[4,3-c]quinoline-8-carboxamide] | < 100
< 1 | 97 | Cn1ncc2c(N)nc3cc(F)c(C(=O)N(Cc4ccc(C(F)(F)F)cn4)NC(=O)C4(F)CC4)cc3c21 [Example 294, 4-amino-7-fluoro-N′-(1-fluorocyclopropane-1-carbonyl)-1-methyl-N-((5-(trifluoromethyl)pyridin-2-yl)methyl)-1H-pyrazolo[4,3-c]quinoline-8-carbohydrazide] | < 100
< 1 | 18 | Cn1ncc2c(N)nc3ccc(C(=O)N(Cc4ccc(C(F)(F)F)cn4)n4ccc5cccnc54)cc3c21 [Example 295, 4-amino-1-methyl-N-(1H-pyrrolo[2,3-b]pyridin-1-yl)-N-((5-(trifluoromethyl)pyridin-2-yl)methyl)-1H-pyrazolo[4,3-c]quinoline-8-carboxamide] | < 100
< 1 | 27 | Cn1ncc2c(N)nc3cc(F)c(C(=O)N(Cc4ccc(C(F)(F)F)cn4)n4ccc5cccnc54)cc3c21 [Example 296, 4-amino-7-fluoro-1-methyl-N-(1H-pyrrolo[2,3-b]pyridin-1-yl)-N-((5-(trifluoromethyl)pyridin-2-yl)methyl)-1H-pyrazolo[4,3-c]quinoline-8-carboxamide] | < 100
1 to 5 | 151 | Cn1ncc2c(N)nc3ccc(C(=O)N(Cc4ccc(C(F)(F)F)cn4)N4C[C@@H]5C[C@H]4CO5)cc3c21 [Example 297, 4-amino-N-((1S,4S)-2-oxa-5-azabicyclo[2.2.1]heptan-5-yl)-1-methyl-N-((5-(trifluoromethyl)pyridin-2-yl)methyl)-1H-pyrazolo[4,3-c]quinoline-8-carboxamide] | 100 to 1000
< 1 | 23 | Cn1ncc2c(N)nc3cc(F)c(C(=O)N(Cc4ccc(C(F)(F)F)cn4)N4C[C@@H]5C[C@H]4CO5)cc3c21 [Example 298, 4-amino-N-((1S,4S)-2-oxa-5-azabicyclo[2.2.1]heptan-5-yl)-7-fluoro-1-methyl-N-((5-(trifluoromethyl)pyridin-2-yl)methyl)-1H-pyrazolo[4,3-c]quinoline-8-carboxamide] | < 100
< 1 | 144 | Cn1ncc2c(N)nc3ccc(C(=O)N(Cc4ccc(C(F)(F)F)cn4)N4C[C@H]5C[C@@H]4CO5)cc3c21 [Example 299, 4-amino-N-((1R,4R)-2-oxa-5-azabicyclo[2.2.1]heptan-5-yl)-1-methyl-N-((5-(trifluoromethyl)pyridin-2-yl)methyl)-1H-pyrazolo[4,3-c]quinoline-8-carboxamide] | < 100
< 1 | 24 | Cn1ncc2c(N)nc3cc(F)c(C(=O)N(Cc4ccc(C(F)(F)F)cn4)N4C[C@H]5C[C@@H]4CO5)cc3c21 [Example 300, 4-amino-N-((1R,4R)-2-oxa-5-azabicyclo[2.2.1]heptan-5-yl)-7-fluoro-1-methyl-N-((5-(trifluoromethyl)pyridin-2-yl)methyl)-1H-pyrazolo[4,3-c]quinoline-8-carboxamide] | < 100
< 1 | 106 | CC(=O)N(C)N(Cc1cccc2c1OC(F)(F)O2)C(=O)c1cc2c(cc1F)nc(N)c1cnn(C)c12 [Example 301, N′-acetyl-4-amino-N-((2,2-difluorobenzo[d][1,3]dioxol-4-yl)methyl)-7-fluoro-N′,1-dimethyl-1H-pyrazolo[4,3-c]quinoline-8-carbohydrazide] | < 100
1 to 5 | 248 | CN(C(=O)C1CC1)N(Cc1cccc2c1OC(F)(F)O2)C(=O)c1ccc2nc(N)c3cnn(C)c3c2c1 [Example 302, 4-amino-N′-(cyclopropanecarbonyl)-N-((2,2-difluorobenzo[d][1,3]dioxol-4-yl)methyl)-N′,1-dimethyl-1H-pyrazolo[4,3-c]quinoline-8-carbohydrazide] | < 100
< 1 | 58 | CN(C(=O)C1CC1)N(Cc1cccc2c1OC(F)(F)O2)C(=O)c1cc2c(cc1F)nc(N)c1cnn(C)c12 [Example 303, 4-amino-N′-(cyclopropanecarbonyl)-N-((2,2-difluorobenzo[d][1,3]dioxol-4-yl)methyl)-7-fluoro-N′,1-dimethyl-1H-pyrazolo[4,3-c]quinoline-8-carbohydrazide] | < 100
1 to 5 | 15 | CN(C(=O)C1CC1)N(Cc1ccc(C(F)(F)F)cn1)C(=O)c1cc2c(cc1Cl)nc(N)c1cnn(C)c12 [Example 304, 4-amino-7-chloro-N′-(cyclopropanecarbonyl)-N′,1-dimethyl-N-((5-(trifluoromethyl)pyridin-2-yl)methyl)-1H-pyrazolo[4,3-c]quinoline-8-carbohydrazide] | < 100
< 1 | 75 | [2H]C1([2H])C([2H])([2H])C1([2H])C(=O)N(C)N(Cc1ccc(C(F)(F)F)cn1)C(=O)c1ccc2nc(N)c3cnn(C)c3c2c1 [Example 305, 4-amino-N′-(cyclopropane-1-carbonyl-d5)-N′,1-dimethyl-N-((5-(trifluoromethyl)pyridin-2-yl)methyl)-1H-pyrazolo[4,3-c]quinoline-8-carbohydrazide] | < 100
< 1 | 359 | CC(=O)N(C)N(Cc1cccc2c1OC(F)(F)O2)C(=O)c1ccc2nc(N)c3cnn(C)c3c2c1 [Example 307, N′-acetyl-4-amino-N-((2,2-difluorobenzo[d][1,3]dioxol-4-yl)methyl)-N′,1-dimethyl-1H-pyrazolo[4,3-c]quinoline-8-carbohydrazide] | < 100
< 1 | 122 | Cn1ncc2c(N)nc3ccc(C(=O)N(Cc4ccc(C(F)(F)F)cn4)NC(=O)C4(F)CC4)cc3c21 [Example 308, 4-amino-N′-(1-fluorocyclopropane-1-carbonyl)-1-methyl-N-((5-(trifluoromethyl)pyridin-2-yl)methyl)-1H-pyrazolo[4,3-c]quinoline-8-carbohydrazide] | < 100
1 to 5 | 52 | Cn1ncc2c(N)nc3cc(F)c(C(=O)N(Cc4ccc(C(F)(F)F)cn4)N4C[C@H]5CC[C@@H](C4)O5)cc3c21 [Example 309, 4-amino-N-((1R,5S)-8-oxa-3-azabicyclo[3.2.1]octan-3-yl)-7-fluoro-1-methyl-N-((5-(trifluoromethyl)pyridin-2-yl)methyl)-1H-pyrazolo[4,3-c]quinoline-8-carboxamide] | < 100
< 1 | 132 | C[C@@H]1CN(N(Cc2ccc(C(F)(F)F)cn2)C(=O)c2ccc3nc(N)c4cnn(C)c4c3c2)C[C@H](C)O1 [Example 310, 4-amino-N-((2S,6R)-2,6-dimethylmorpholino)-1-methyl-N-((5-(trifluoromethyl)pyridin-2-yl)methyl)-1H-pyrazolo[4,3-c]quinoline-8-carboxamide] | < 100
1 to 5 | 58 | CN(C(=O)C1CC1)N(Cc1cc(F)c(-c2cnn(C(F)(F)F)c2)cc1F)C(=O)c1ccc2nc(N)c3cnn(C)c3c2c1 [Example 311, 4-amino-N′-(cyclopropanecarbonyl)-N-(2,5-difluoro-4-(1-(trifluoromethyl)-1H-pyrazol-4-yl)benzyl)-N′,1-dimethyl-1H-pyrazolo[4,3-c]quinoline-8-carbohydrazide] | < 100
< 1 | 160 | Cc1cc(CN(C(=O)c2ccc3nc(N)c4cnn(C)c4c3c2)N(C)C(=O)C2CC2)c(F)cc1-c1cnn(C(F)(F)F)c1 [Example 315, 4-amino-N′-(cyclopropanecarbonyl)-N-(2-fluoro-5-methyl-4-(1-(trifluoromethyl)-1H-pyrazol-4-yl)benzyl)-N′,1-dimethyl-1H-pyrazolo[4,3-c]quinoline-8-carbohydrazide] | < 100

— patent publication US20240254118A1, “PRMT5 INHIBITORS AND USES THEREOF” (Gilead Sciences, Inc., priority 2022, published 2024)
